Results taken from ChEMBL document CHEMBL3046314, “Synthesis, cytotoxicity, and molecular properties prediction of novel 1,3-diarylpyrazole derivatives” (Med Chem Res, 2013).

How the values were obtained:
Format in all cases: functional, cell-based
[1] = tested on: MDA-MB-231; assay: Cytotoxicity against Homo sapiens (human) MDA-MB-231 cells after 48 hr by MTT assay; conditions: MDA-MB-231, 48 h
[2] = tested on: HeLa; assay: Cytotoxicity against Homo sapiens (human) HeLa cells after 48 hr by MTT assay
[3] = tested on: HL-60; assay: Cytotoxicity against Homo sapiens (human) HL60 cells after 48 hr by MTT assay
[4] = tested on: MCF7; assay: Cytotoxicity against Homo sapiens (human) MCF7 cells after 48 hr by MTT assay
[5] = tested on: Raji; assay: Cytotoxicity against Homo sapiens (human) Raji cells after 48 hr by MTT assay
[6] = Homo sapiens, HL-60, 48 h, read-out: IC50
[7] = Homo sapiens, MCF7, 48 h, read-out: IC50
[8] = Homo sapiens, Raji, 48 h, read-out: IC50

Compound	IC50 [1] [µM]	IC50 [2] [µM]	IC50 [3, 6] [µM]	IC50 [4, 7] [µM]	IC50 [5, 8] [µM]	IC50 ([3]; hl-60)	IC50 ([4]; mcf7)	IC50 ([5]; raji)
Cc1ccc(C(C)C)c(OC(=O)c2cn(-c3ccccc3)nc2-c2cccnc2)c1	> 100	> 100	22.7	84.2	20.6	–	–	–
O=C(c1cn(-c2ccccc2)nc1-c1cccnc1)N1CCOCC1	> 100	> 100	> 100	> 100	> 100	–	–	–
CC(C)c1cccc(OC(=O)c2cn(-c3ccccc3)nc2-c2cccnc2)c1	> 100	> 100	23.7	75.5	11.6	–	–	–
CC(C)c1cccc(OC(=O)c2cn(-c3ccccc3)nc2-c2ccncc2)c1	> 100	> 100	–	–	–	ND(Insoluble)	ND(Insoluble)	ND(Insoluble)
Cc1ccc(C(C)C)c(OC(=O)c2cn(-c3ccccc3)nc2-c2ccncc2)c1	> 100	> 100	17.8	> 100	10.6	–	–	–
O=C(Oc1ccc2ccccc2c1)c1cn(-c2ccccc2)nc1-c1cccnc1	> 100	> 100	–	–	–	ND(Insoluble)	ND(Insoluble)	ND(Insoluble)
O=C(c1cn(-c2ccccc2)nc1-c1ccncc1)N1CCN(c2ccccc2)CC1	> 100	> 100	> 100	> 100	> 100	–	–	–
CCc1ccc(OC(=O)c2cn(-c3ccccc3)nc2-c2ccncc2)cc1	> 100	> 100	–	–	–	ND(Insoluble)	ND(Insoluble)	ND(Insoluble)
O=C(O)c1cn(-c2ccccc2)nc1-c1cccnc1	> 100	> 100	> 100	> 100	> 100	–	–	–
CN1CCN(C(=O)c2cn(-c3ccccc3)nc2-c2ccncc2)CC1	> 100	> 100	> 100	> 100	> 100	–	–	–
O=C(Oc1ccc(-c2ccccc2)cc1)c1cn(-c2ccccc2)nc1-c1cccnc1	> 100	> 100	–	–	–	ND(Insoluble)	ND(Insoluble)	ND(Insoluble)
O=C(c1cn(-c2ccccc2)nc1-c1ccncc1)N1CCN(c2ccc(C(F)(F)F)cc2)CC1	> 100	> 100	> 100	> 100	9.63	–	–	–
CC(C)(C)c1ccc(OC(=O)c2cn(-c3ccccc3)nc2-c2ccncc2)cc1	34.5	35.4	18.7	32.2	33.3	–	–	–
CC(C)(C)c1ccc(OC(=O)c2cn(-c3ccccc3)nc2-c2cccnc2)cc1	> 100	> 100	> 100	> 100	42.3	–	–	–
O=C(c1cn(-c2ccccc2)nc1-c1cccnc1)N1CCN(c2ccc(C(F)(F)F)cc2)CC1	> 100	28.6	16.9	75.3	15.1	–	–	–
O=C(c1cn(-c2ccccc2)nc1-c1ccncc1)N1CCN(c2ccncc2)CC1	> 100	> 100	> 100	> 100	> 100	–	–	–
O=C(c1cn(-c2ccccc2)nc1-c1cccnc1)N1CCC(Cc2ccccc2)CC1	> 100	25.3	16.1	32.2	8.12	–	–	–
O=C(Oc1ccc2ccccc2c1)c1cn(-c2ccccc2)nc1-c1ccncc1	> 100	> 100	> 100	44.5	12.1	–	–	–
O=C(NCc1ccccc1)c1cn(-c2ccccc2)nc1-c1cccnc1	> 100	> 100	–	–	–	ND(Insoluble)	ND(Insoluble)	ND(Insoluble)
O=C(c1cn(-c2ccccc2)nc1-c1ccncc1)N1CCOCC1	> 100	> 100	> 100	> 100	> 100	–	–	–
O=C(c1cn(-c2ccccc2)nc1-c1cccnc1)N1CCN(c2ccccc2)CC1	> 100	> 100	24.5	> 100	32.8	–	–	–
COc1ccc(OC(=O)c2cn(-c3ccccc3)nc2-c2cccnc2)cc1	> 100	> 100	> 100	> 100	> 100	–	–	–
O=C(NCc1ccccc1)c1cn(-c2ccccc2)nc1-c1ccncc1	> 100	> 100	> 100	> 100	> 100	–	–	–
O=C(O)c1cn(-c2ccccc2)nc1-c1ccncc1	> 100	> 100	> 100	> 100	> 100	–	–	–
O=C(Oc1ccc(-c2ccccc2)cc1)c1cn(-c2ccccc2)nc1-c1ccncc1	> 100	> 100	–	–	–	ND(Insoluble)	ND(Insoluble)	ND(Insoluble)
O=C(c1cn(-c2ccccc2)nc1-c1cccnc1)N1CCN(c2ccncc2)CC1	> 100	> 100	> 100	> 100	> 100	–	–	–
O=C(c1cn(-c2ccccc2)nc1-c1ccncc1)N1CCC(Cc2ccccc2)CC1	> 100	32.8	16.4	56.4	21.3	–	–	–
CN1CCN(C(=O)c2cn(-c3ccccc3)nc2-c2cccnc2)CC1	> 100	> 100	> 100	> 100	75.6	–	–	–
COc1ccc(OC(=O)c2cn(-c3ccccc3)nc2-c2ccncc2)cc1	> 100	> 100	> 100	> 100	> 100	–	–	–
